Laboratory results as given in patent publication US11634397B2, “Process and intermediates for the preparation of Fluensulfone” (ADAMA MAKHTESHIM LTD., priority 2018, dated 2023).

Experiment: Solubility of 2-mercaptothiazole estimated in a variety of solvents at room temperature
Type: physicochemical
Conditions: stirred overnight
Experimental: The solubility of 2-mercaptothiazole was estimated in a variety of solvents at room temperature. Large amount of 2-mercaptothiazole was added to the tested solvent. The mixture was stirred overnight. The residual solid was removed by filtration. Then the solution was analyzed by quantitative analysis vs. analytical standard to determine the concentration of the 2-mercaptothiazole.

Solubility of 2-mercaptothiazole (solvent 1,2-dichlorobenzene): 1.91 wt %
Solubility of 2-mercaptothiazole (solvent 1,2-dichloroethane): 8.43 wt %
Solubility of 2-mercaptothiazole (solvent CPME (cyclopentyl methyl ether)): 6.5 wt %
Solubility of 2-mercaptothiazole (solvent IBN (iso-butyronitrile)): 20.2 wt %
Solubility of 2-mercaptothiazole (solvent IPAc (isopropyl acetate)): 14.8 wt %
Solubility of 2-mercaptothiazole (solvent MCB (mono-chlorobenzene)): 2.4 wt %
Solubility of 2-mercaptothiazole (solvent NBN (n-butyronitrile)): 28.9 wt %
Solubility of 2-mercaptothiazole (solvent pentanol): 19.1 wt %
Solubility of 2-mercaptothiazole (solvent toluene): 2.2 wt %
SMILES: Sc1nccs1 [2-mercaptothiazole]
